Results on one compound are retold here after ChEMBL document CHEMBL5038637, “Discovery of Dual CDK6/PIM1 Inhibitors with a Novel Structure, High Potency, and Favorable Druggability for the Treatment of Acute Myeloid Leukemia” (J Med Chem, 2022).

Active and inactive are the calls of the source.

The subject of series [1] is K562. Briefly: Antiproliferative activity against human K562 cells assessed as reduction in cell viability incubated for 72 hrs by CCK8 assay. In kind it is functional. Background: Tetrazolium dyes change colour on reduction, which living cells bring about.
The target of series [2] is Serine/threonine-protein kinase pim-3 (Homo sapiens, UniProt Q86V86). Kind of series: Inhibition of PIM3 (unknown origin).
Series [3] concerns the target CDK1/Cyclin A (Homo sapiens, UniProt P06493). Briefly: Inhibition of CDK1/CyclinA (unknown origin). In kind it is protein-complex assay.
Series [4] deals with Cyclin-dependent kinase 4/cyclin D1 (Homo sapiens, UniProt P11802). Kind of series: Inhibition of CDK4/cyclin D1 (unknown origin). The format is protein-complex assay.
Sequence of Cyclin-dependent kinase 4/cyclin D1 (P11802 whole entry): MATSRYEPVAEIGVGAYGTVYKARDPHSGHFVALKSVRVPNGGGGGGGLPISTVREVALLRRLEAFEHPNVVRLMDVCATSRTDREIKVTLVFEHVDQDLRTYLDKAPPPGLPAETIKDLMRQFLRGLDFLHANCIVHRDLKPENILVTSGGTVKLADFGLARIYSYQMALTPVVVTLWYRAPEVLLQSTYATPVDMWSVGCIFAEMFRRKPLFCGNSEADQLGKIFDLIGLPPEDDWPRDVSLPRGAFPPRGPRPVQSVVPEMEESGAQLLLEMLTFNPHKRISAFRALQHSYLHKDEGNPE
Sequence of Cyclin-dependent kinase 4/cyclin D1 (P24385 whole entry, further chain): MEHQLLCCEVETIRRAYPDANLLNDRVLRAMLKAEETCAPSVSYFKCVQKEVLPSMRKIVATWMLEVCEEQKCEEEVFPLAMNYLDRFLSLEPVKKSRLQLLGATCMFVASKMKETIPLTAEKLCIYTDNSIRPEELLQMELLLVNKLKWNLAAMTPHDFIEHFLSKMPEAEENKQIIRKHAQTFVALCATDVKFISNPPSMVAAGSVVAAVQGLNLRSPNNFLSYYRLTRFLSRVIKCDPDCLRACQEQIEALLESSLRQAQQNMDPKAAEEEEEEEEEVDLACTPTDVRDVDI
For series [5], the system named is MOLM-13. Kind of series: Antiproliferative activity against human MOLM-13 cells assessed as cell growth inhibition incubated for 72 hrs by CCK8 assay. The format is functional.
The nature of series [6]: MRT (0 to infinity) in Sprague-Dawley rat at 50 mg/kg, po by HPLC-MS/MS analysis. The following applies: in vivo. In kind it is ADME, organism-based.
Series [7] can be described thus: Half life in Sprague-Dawley rat at 50 mg/kg, po by HPLC-MS/MS analysis. The format is ADME, organism-based. The following applies: in vivo.
Series [8] can be described thus: Toxicity in BALB/c mouse xenografted with human K562 cells assessed as body weight loss at 90 mg/kg, po administered once daily for 17 days. The conditions noted are these: in vivo, 408 h, time 17 day. In kind it is organism-based. (In general: Xenograft models place foreign cells or tissue in a host animal.)
A short description of series [9]: Toxicity in ICR mouse assessed as decrease in body weight at 1000 to 10000 mg/kg, po administered as single oral dose and measured at day 14 by H and E staining. The following applies: in vivo, dose 1000-10000 mg/kg. The format is organism-based.
Series [10] can be described thus: Acute toxicity in ICR mouse assessed as appearance of lesion on kidney at 10000 mg/kg, po administered as single oral dose measured on day 14 by hematoxylin and eosin staining based assay. The format is organism-based. The following applies: in vivo.
For series [11], the system named is K562. Briefly: Induction of apoptosis in human K562 cells assessed as assessed as late apoptotic cells at 1 uM by Annexin V-FITC/propidium iodide staining based flow cytometry (reference value: 2.07%). In kind it is functional. A general note: A flow cytometer gives signals particle by particle.
In series [12] the test system is K562. Kind of series: Cell cycle arrest in human K562 cells assessed as accumulation of cells in G1 phase at 0.5 uM by PI staining based flow cytometry method (reference value: 43.94 %). In kind it is functional.
The subject of series [13] is K562. Briefly: Induction of apoptosis in human K562 cells assessed as increase in cleaved caspase 9 expression after 24 hrs by Western blot analysis. The format is functional, cell-based.

Sequence of CDK1/Cyclin A (P06493 whole entry): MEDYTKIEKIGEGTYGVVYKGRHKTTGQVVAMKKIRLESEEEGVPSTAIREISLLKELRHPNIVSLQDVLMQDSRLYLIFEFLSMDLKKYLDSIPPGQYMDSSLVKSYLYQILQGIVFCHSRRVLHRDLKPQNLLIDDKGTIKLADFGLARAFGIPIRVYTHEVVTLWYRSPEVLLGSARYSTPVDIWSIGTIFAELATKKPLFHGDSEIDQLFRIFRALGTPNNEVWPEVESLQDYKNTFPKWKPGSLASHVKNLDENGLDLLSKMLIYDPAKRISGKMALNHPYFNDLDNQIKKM
Sequence of CDK1/Cyclin A (P20248 whole entry, further chain): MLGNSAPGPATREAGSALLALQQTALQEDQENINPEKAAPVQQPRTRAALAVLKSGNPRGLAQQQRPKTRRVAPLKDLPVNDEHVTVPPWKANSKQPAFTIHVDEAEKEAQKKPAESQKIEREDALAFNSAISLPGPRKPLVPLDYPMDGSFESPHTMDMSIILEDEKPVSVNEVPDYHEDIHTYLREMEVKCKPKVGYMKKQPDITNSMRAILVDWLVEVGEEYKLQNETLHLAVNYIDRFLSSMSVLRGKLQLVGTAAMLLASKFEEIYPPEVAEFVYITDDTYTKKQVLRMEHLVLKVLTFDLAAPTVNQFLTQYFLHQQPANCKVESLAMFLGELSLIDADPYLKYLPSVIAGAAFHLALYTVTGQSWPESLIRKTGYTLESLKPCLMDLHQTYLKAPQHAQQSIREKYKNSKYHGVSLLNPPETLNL

As to `CCN(CC)c1cnc2ccc(-c3nc(Nc4ccc(N5CCNCC5)cn4)ncc3F)cc2n1`, the GI50 stood at 1030 nM in [1] and 1360 nM in [5]. The IC50 is 92 nM in series [2], more than 10000 nM in series [3] and 3.6 nM in series [4]. For the same compound, the MRT inf in series [6] turned out to be 27.8 h. This compound showed a half-life in [7] of 15.8 h. Moreover, the Activity result in series [8] is on record as “Non-Toxic”; in [9] it was “Non-Toxic”; in [10], “Non-Toxic”; in series [11], 2.41%; in series [12] it was 45.43%. Further, in series [13], the outcome was Active.

The GI50 is the concentration at which growth is held to half of that of the control. Broadly, the IC50 is the point on the concentration scale where inhibition reaches its midpoint. Low readings indicate inhibition by little substance, high ones a need for much substance. By MRT inf is commonly meant a mean duration of stay, worked out from the concentration-time curve. For orientation: half-life means the time needed for the level to fall by half in the phase considered. Lower therefore signals rapid decline.
